Data from patent publication US9440969B2, “Compounds and methods for kinase modulation, and indications therefor” (PLEXXIKON INC., priority 2009, dated 2016).

Tests used:
[1] = target: B-Raf (Homo sapiens, UniProt P15056); test: B-Raf kinase activity assay (AlphaScreen, biotin-MEK1 substrate); details: 100 μM ATP, 100 nM biotin-MEK1, 45 minutes at room temperature; read-out: Biochemical activity (IC50 μM) B-Raf
Outline: (§1)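 Each Raf enzyme (0.1 ng) phosphorylates 100 nM biotin-MEK1 in pH 7.0 HEPES with Mg2+/Mn2+, 100 μM ATP final, 45 min at room temperature. Phospho-MEK1/2 antibody with AlphaScreen beads is read after 3 h. IC50 comes from an 8-point dilution series.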

[2] = target: B-Raf V600E (Homo sapiens, UniProt P15056, V600E); test: B-Raf V600E kinase activity assay (AlphaScreen, biotin-MEK1 substrate); details: 100 μM ATP, 100 nM biotin-MEK1, 45 minutes at room temperature, read-out: Biochemical activity (IC50 μM) V600E
Sequence of B-Raf V600E (P15056 whole entry V600E): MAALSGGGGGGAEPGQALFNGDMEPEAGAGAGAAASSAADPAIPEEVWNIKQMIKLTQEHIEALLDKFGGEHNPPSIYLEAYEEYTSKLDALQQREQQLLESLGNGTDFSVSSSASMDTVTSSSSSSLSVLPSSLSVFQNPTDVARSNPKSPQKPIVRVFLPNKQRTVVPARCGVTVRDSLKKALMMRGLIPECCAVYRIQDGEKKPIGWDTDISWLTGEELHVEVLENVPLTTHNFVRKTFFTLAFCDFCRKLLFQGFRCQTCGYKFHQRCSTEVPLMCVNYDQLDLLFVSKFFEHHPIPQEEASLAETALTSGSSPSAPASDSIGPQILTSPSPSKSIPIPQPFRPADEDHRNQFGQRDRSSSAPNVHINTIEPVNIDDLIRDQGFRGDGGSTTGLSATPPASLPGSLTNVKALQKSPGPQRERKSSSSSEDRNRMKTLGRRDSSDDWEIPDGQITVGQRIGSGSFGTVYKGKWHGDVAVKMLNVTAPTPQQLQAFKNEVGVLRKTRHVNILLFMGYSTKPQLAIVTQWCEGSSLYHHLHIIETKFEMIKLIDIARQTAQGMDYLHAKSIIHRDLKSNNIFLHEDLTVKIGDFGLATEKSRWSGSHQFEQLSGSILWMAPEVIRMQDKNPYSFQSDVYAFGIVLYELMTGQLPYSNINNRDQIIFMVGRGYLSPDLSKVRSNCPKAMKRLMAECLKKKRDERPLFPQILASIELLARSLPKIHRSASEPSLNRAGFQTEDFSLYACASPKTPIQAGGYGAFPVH
Outline: as §1

[3] = target: c-Raf-1 (Homo sapiens, UniProt P04049); test: c-Raf-1 kinase activity assay (AlphaScreen, biotin-MEK1 substrate); details: 100 μM ATP, 100 nM biotin-MEK1, 45 minutes at room temperature; read-out: Biochemical activity (IC50 μM) c-Raf-1
Sequence of c-Raf-1 (P04049 whole entry Y340D/Y341D, form open): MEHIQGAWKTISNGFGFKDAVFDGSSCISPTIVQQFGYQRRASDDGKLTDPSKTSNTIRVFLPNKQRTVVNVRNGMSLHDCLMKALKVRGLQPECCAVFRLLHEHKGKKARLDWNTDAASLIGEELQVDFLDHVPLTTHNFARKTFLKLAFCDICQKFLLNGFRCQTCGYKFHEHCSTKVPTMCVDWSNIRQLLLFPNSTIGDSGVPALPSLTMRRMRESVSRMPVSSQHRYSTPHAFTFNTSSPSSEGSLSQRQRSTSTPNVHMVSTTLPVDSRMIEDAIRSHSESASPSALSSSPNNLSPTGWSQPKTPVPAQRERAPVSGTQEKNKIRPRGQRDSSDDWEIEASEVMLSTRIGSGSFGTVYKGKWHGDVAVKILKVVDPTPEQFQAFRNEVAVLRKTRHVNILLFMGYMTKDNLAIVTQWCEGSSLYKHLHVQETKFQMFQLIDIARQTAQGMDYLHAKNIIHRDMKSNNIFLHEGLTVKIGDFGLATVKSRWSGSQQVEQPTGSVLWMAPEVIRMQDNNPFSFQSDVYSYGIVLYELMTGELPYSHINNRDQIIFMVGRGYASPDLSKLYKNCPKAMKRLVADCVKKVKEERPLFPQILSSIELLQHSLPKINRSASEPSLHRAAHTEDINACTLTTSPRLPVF
Outline: as §1

[4] = target: T1, CYP1A2 (Homo sapiens, UniProt P05177); test: CYP1A2 inhibition (fluorescent substrate CEC); assay type: in vitro ADME; details: read-out: Cyp IC50 (μM) 1A2
T1 sequence (P05177 1-516): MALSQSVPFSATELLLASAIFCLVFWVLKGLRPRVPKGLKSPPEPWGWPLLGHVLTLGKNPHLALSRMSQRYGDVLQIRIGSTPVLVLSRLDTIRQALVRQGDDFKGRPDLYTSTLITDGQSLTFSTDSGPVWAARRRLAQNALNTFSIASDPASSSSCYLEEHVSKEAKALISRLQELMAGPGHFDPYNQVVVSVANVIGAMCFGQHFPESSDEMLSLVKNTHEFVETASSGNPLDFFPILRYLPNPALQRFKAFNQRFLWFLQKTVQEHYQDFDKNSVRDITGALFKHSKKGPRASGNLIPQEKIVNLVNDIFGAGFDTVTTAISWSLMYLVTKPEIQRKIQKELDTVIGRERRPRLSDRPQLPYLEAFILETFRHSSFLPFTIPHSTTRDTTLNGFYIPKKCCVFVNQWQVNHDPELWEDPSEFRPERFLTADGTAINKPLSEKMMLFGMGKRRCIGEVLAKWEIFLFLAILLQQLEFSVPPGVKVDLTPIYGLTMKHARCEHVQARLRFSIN
Outline: (§2)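 Human CYP enzymes with fluorogenic substrates and NADPH regeneration, compound preincubated 10 min at 37 °C in 10-point 1:1 dilution series. CYP1A2 0.5 pmol/5 μM CEC, 15 min, 409/460 nm; CYP2C9 1.0 pmol/75 μM MFC, 45 min, 409/530 nm; CYP2D6 1.5 pmol/1.5 μM AMMC, 30 min, 409/530 nm; CYP3A4 1.0 pmol/50 μM BFC, 30 min, 409/460 nm. IC50 from fluorescence vs concentration.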

[5] = target: CYP2C19 (Homo sapiens, UniProt P33261); test: CYP2C19 inhibition (fluorescent substrate CEC); assay type: in vitro ADME; details: read-out: Cyp IC50 (μM) 2C19
Sequence of CYP2C19 (P33261 whole entry): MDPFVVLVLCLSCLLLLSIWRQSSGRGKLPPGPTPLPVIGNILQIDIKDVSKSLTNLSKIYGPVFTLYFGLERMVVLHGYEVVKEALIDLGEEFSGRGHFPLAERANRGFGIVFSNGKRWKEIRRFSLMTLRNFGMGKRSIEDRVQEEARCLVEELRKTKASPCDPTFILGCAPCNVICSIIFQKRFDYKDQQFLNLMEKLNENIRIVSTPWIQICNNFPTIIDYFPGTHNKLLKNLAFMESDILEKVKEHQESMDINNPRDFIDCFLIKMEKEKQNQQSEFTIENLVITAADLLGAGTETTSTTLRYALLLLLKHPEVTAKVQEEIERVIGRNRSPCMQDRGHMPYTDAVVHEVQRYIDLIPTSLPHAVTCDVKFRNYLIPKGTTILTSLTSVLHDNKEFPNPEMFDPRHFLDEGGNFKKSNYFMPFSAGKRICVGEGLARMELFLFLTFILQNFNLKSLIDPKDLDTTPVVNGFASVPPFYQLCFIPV

[6] = target: CYP2D6 (Homo sapiens, UniProt P10635); test: CYP2D6 inhibition (fluorescent substrate AMMC); assay type: in vitro ADME; details: read-out: Cyp IC50 (μM) 2D6
Sequence of CYP2D6 (P10635 whole entry): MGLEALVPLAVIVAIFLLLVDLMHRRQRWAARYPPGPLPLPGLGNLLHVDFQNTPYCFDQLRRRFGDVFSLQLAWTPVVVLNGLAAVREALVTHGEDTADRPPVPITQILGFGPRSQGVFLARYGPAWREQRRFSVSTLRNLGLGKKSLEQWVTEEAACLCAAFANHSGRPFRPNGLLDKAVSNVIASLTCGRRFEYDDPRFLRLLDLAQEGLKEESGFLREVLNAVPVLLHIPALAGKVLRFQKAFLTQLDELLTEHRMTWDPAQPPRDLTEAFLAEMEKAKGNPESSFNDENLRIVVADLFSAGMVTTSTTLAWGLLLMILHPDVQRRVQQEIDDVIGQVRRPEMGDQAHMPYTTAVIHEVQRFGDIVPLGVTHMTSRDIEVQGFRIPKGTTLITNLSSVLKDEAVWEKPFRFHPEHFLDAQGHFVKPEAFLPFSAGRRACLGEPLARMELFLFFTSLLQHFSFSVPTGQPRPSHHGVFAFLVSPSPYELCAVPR
Outline: as §2

[7] = target: CYP3A4(BFC) (Homo sapiens, UniProt P08684); test: CYP3A4 inhibition (substrate BFC); assay type: in vitro ADME; details: read-out: Cyp IC50 (μM) 3A4(BFC)
Sequence of CYP3A4(BFC) (P08684 whole entry): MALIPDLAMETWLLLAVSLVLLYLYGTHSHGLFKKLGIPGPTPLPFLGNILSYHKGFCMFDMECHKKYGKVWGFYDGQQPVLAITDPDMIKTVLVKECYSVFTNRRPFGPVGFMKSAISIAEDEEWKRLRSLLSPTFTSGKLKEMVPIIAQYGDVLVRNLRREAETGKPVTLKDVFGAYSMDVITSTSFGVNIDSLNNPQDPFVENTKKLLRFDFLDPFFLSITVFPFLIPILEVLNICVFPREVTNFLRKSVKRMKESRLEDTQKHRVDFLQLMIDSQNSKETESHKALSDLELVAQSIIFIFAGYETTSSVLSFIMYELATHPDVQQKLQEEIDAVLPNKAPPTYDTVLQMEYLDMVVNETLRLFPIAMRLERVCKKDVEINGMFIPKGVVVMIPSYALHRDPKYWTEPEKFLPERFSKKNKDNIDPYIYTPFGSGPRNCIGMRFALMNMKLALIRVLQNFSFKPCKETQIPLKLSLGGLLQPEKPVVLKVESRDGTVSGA
Outline: as §2

Sequence of B-Raf (P15056 whole entry): as the sequence (P15056 whole entry V600E) above, with E600V counted along it

IC50 [1] [µM] | IC50 [2] [µM] | IC50 [3] [µM] | IC50 [4] [µM] | IC50 [5] [µM] | IC50 [6] [µM] | IC50 [7] [µM] | SMILES
< 0.1 | < 0.1 | < 0.1 | > 10 | > 10 | > 10 | > 10 | CCCS(=O)(=O)Nc1ccc(F)c(C(=O)c2c[nH]c3ncc(-c4ccc5cncnc5c4)cc23)c1F [P-0025, Propane-1-sulfonic acid [2,4-difluoro-3-(5-quinazolin-7-yl-1H-pyrrolo[2,3-b]pyridine-3-carbonyl)-phenyl]-amide]
< 0.1 | < 0.1 | < 0.1 | > 10 | > 10 | > 10 | > 10 | CCCS(=O)(=O)Nc1ccc(F)c(C(=O)c2c[nH]c3ncc(-c4cnn(C5CCNCC5)c4)cc23)c1F [P-1002, Propane-1-sulfonic acid {2,4-difluoro-3-[5-(1-piperidin-4-yl-1H-pyrazol-4-yl)-1H-pyrrolo[2,3-b]pyridine-3-carbonyl]-phenyl}-amide]
< 0.1 | < 0.1 | < 0.1 | > 10 | > 10 | > 10 | 5 to 10 | O=C(c1c(F)ccc(NS(=O)(=O)c2ccc(C(F)(F)F)cc2)c1F)c1c[nH]c2ncc(-c3cnn(C4CCNCC4)c3)cc12 [P-1004, N-{2,4-Difluoro-3-[5-(1-piperidin-4-yl-1H-pyrazol-4-yl)-1H-pyrrolo[2,3-b]pyridine-3-carbonyl]-phenyl}-4-trifluoromethyl-benzenesulfonamide]
< 0.1 | < 0.1 | < 0.1 | > 10 | > 10 | > 10 | > 10 | CCCS(=O)(=O)Nc1ccc(F)c(C(=O)c2c[nH]c3ncc(-c4csc(-n5ccnc5C)n4)cc23)c1F [P-1101, Propane-1-sulfonic acid (2,4-difluoro-3-{5-[2-(2-methyl-imidazol-1-yl)-thiazol-4-yl]-1H-pyrrolo[2,3-b]pyridine-3-carbonyl}-phenyl)-amide]
< 0.1 | < 0.1 | < 0.1 | > 10 | > 10 | > 10 | > 10 | Cc1ccc(-c2cnc3[nH]cc(C(=O)c4c(F)ccc(NS(=O)(=O)c5cc(F)ccc5F)c4F)c3c2)cn1 [P-1408, N-{2,4-Difluoro-3-[5-(6-methyl-pyridin-3-yl)-1H-pyrrolo[2,3-b]pyridine-3-carbonyl]-phenyl}-2,5-difluoro-benzenesulfonamide]
< 0.1 | < 0.1 | < 0.1 | > 10 | > 10 | > 10 | > 10 | Cc1ncc(-c2cnc3[nH]cc(C(=O)c4c(F)ccc(NS(=O)(=O)c5cc(F)ccc5F)c4F)c3c2)cn1 [P-1503, N-{2,4-Difluoro-3-[5-(2-methyl-pyrimidin-5-yl)-1H-pyrrolo[2,3-b]pyridine-3-carbonyl]-phenyl}-2,5-difluoro-benzenesulfonamide]
